The target in one experiment is T1, Recombinant human p38α (Homo sapiens, UniProt Q16539).
T1 construct: GST; made in house
The experiment can be described thus: Fluorescence anisotropy kinase binding assay (standard or low volume). The following applies: 12 nM p38α, 5 nM fluorescent ligand. From the text: The concentration of kinase enzyme should preferably be >2×Kf. The concentration of fluorescent ligand required will depend on the instrumentation used, and the fluorescent and physicochemical properties. The concentration used must be lower than the concentration of kinase enzyme, and preferably less than half the kinase enzyme concentration.
The fluorescent ligand is the following compound:
[drawing 329] • which is derived from 5-[2-(4-aminomethylphenyl)-5-pyridin-4-yl-1H-imidazol-4-yl]-2-chlorophenol and rhodamine green. Recombinant human p38α was expressed as a GST-tagged protein. To activate this protein, 3.5 μM unactivated p38α was incubated in 50 mM Tris-HCl pH 7.5, 0.1 mM EGTA, 0.1% 2-mercaptoethanol, 0.1 mM sodium vanadate, 10 mM MgAc, 0.1 mM ATP with 200 nM MBP-MKK6 DD at 30 degrees for 30 mins. Following activation p38α was re-purified and the activity assessed using a standard filter-binding assay. Protocol: All components are dissolved in buffer of composition 62.5 mM HEPES, pH 7.5, 1.25 mM CHAPS, 1 mM DTT, 12.5 mM MgCl2 with final concentrations of 12 nM p38α and 5 nM fluorescent ligand. 30 μl of this reaction mixture is added to wells containing 1 μl of various concentrations of test compound (0.28 nM-16.6 μM final) or DMSO vehicle (3% final) in NUNC 384 well black microtitre plate and equilibrated for 30-60 mins at room temperature. Fluorescence anisotropy is read in Molecular Devices Acquest (excitation 485 nm/emission 535 nm). Definitions: Ki=dissociation constant for inhibitor binding • Kf=dissociation constant for fluorescent ligand binding
The concentration of kinase enzyme should preferably be 2×Kf. The concentration of fluorescent ligand required will depend on the instrumentation used, and the fluorescent and physicochemical properties. The concentration used must be lower than the concentration of kinase enzyme, and preferably less than half the kinase enzyme concentration. The fluorescent ligand is the following compound:
which is derived from 5-[2-(4-aminomethylphenyl)-5-pyridin-4-yl-1H-imidazol-4-yl]-2-chlorophenol and rhodamine green. Recombinant human p38α was expressed as a GST-tagged protein. To activate this protein, 3.5 μM unactivated p38α was incubated in 50 mM Tris-HCl pH 7.5, 0.1 mM EGTA, 0.1% 2-mercaptoethanol, 0.1 mM sodium vanadate, 10 mM MgAc, 0.1 mM ATP with 200 nM MBP-MKK6 DD at 30 degrees for 30 mins. Following activation p38α was re-purified and the activity assessed using a standard filter-binding assay. Protocol: All components are dissolved in buffer of composition 62.5 mM HEPES, pH 7.5, 1.25 mM CHAPS, 1 mM DTT, 12.5 mM MgCl2 with final concentrations of 12 nM p38α and 5 nM fluorescent ligand. […] of this reaction mixture is added to wells containing 0.1 μl of various concentrations of test compound (0.02 nM-25 μM final) or DMSO vehicle (1.7% final) in Greiner low volume 384 well black microtitre plate and equilibrated for 30-60 mins at room temperature. Fluorescence anisotropy is read in Molecular Devices Acquest (excitation 485 nm/emission 535 nm). Definitions: Ki dissociation constant for inhibitor binding • Kf=dissociation constant for fluorescent ligand binding It is noted that there are two assay formats shown above for the Fluorescence anisotropy kinase binding assay. The only difference between these two assays is the volume used and the plate type. […] The results described herein may have been performed in either assay format and are not differentiated as to which.

The subject of experiment [1] is influx of neutrophils to the lung in LPS-challenged rats. The experiment can be described thus: Rat LPS neutrophilia model. It counts as in vivo. The conditions noted are these: LPS aerosol, lavage 4 hours later, in at least one of the range of conditions tested, significance p<0.05. Here is the method:
The effect of compounds on the influx of neutrophils to the lung in LPS-challenged rats is evaluated as follows. The test compound is suspended in one of the following solutions: 0.5% tween 80/PBS, 0.5% tween 80/saline, 10% EtOH/saline (with pH adjusted to 2.0, or 8.0 with HCl, or unadjusted), Saline (pH 2.0, 6.5 or 8.0, 0.5% Tragacanth, 1% DMSO/20% Encapsin/Saline, or acidified 5% Tragacanth. The suspension process may be aided by the use of a glass homogenizer. For intratracheal administration, the animals are anesthetized with inhaled isoflurane and placed in a supine position, the trachea is intubated with a steel gavage needle (1.5 inch, 22 gauge, small ball) or a Penn-Century Microsprayer Aerosolizer (model IA-LB) and 200 ul of dosing solution is delivered. The animals are visually monitored during the recovery process, which typically occurs within two minutes.
Rats treated with compound or vehicle (15 min-24 hours pretreatment) are exposed to an LPS aerosol (100 ug/ml) for 15 min. Four hours later the rats are euthanized with pentobarbital (100 mg/kg, i.p.) and the airways are lavaged with 5 washes of 5 ml of phosphate buffered saline. The harvested cells are stained (Diffquick) and counted to determine total and differential cell data. In a typical study, macrophages represent 40-70% of the total cells, and polymorphonuclear cells 30-60% of the total cells. Inhibition of neutrophil levels relative to no compound controls is calculated based on the differential counts.
The assay has varying conditions, such as concentration, pretreat time, form of the compound (crystalline, amorphous, salts, micronised), and a wet or dry application of the compound.
The data is obtained as % inhibition using a particular concentration and pretreat time.

Results on 17 molecules are retold here after patent US20090239846A1, “Novel Compounds” (Glaxo Group Limited, priority 2005, published 2009).

Structures can show the parent of a compound that is named as a salt.

T1 sequence (Q16539 whole entry): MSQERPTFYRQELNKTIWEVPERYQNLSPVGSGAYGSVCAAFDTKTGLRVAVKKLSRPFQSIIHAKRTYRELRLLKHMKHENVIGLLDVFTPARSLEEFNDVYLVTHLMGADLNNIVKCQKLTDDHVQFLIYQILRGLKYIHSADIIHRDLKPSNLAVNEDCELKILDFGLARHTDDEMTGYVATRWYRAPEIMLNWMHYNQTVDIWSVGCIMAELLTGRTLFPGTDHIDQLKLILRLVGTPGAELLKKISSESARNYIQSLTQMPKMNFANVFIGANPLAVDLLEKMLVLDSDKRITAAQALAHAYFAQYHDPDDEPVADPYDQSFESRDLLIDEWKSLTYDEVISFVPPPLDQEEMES

As for `CSc1nc(-c2cc(C(=O)O)ccc2C)c2c(n1)N(c1c(F)cccc1F)C(=O)NC2` [1(d), 3-[8-(2,6-Difluorophenyl)-2-(methylthio)-7-oxo-5,6,7,8-tetrahydropyrimido[4,5-d]pyrimidin-4-yl]-4-methylbenzoic acid], the “active in the assay (pIC50, p38α binding)” value (“active in the assay” for short) on Recombinant human p38α is “active”.

In the case of `Cc1ccc(C(=O)NCC2CC2)cc1-c1nc(N2CCC(N)CC2)nc2c1CNC(=O)N2c1c(F)cccc1F` [2(b), 3-[2-(4-Amino-1-piperidinyl)-8-(2,6-difluorophenyl)-7-oxo-5,6,7,8-tetrahydropyrimido[4,5-d]pyrimidin-4-yl]-N-(cyclopropylmethyl)-4-methylbenzamide], the “active in the assay” value at Recombinant human p38α is listed as “active”.

For the molecule `Cc1ccc(C(=O)NCCc2ccc(F)cc2)cc1-c1nc(N2CCC(N)CC2)nc2c1CNC(=O)N2c1c(F)cccc1F` [3(b), 3-[2-(4-Amino-1-piperidinyl)-8-(2,6-difluorophenyl)-7-oxo-5,6,7,8-tetrahydropyrimido[4,5-d]pyrimidin-4-yl]-N-[2-(4-fluorophenyl)ethyl]-4-methylbenzamide], the “active in the assay” value at Recombinant human p38α is reported as “active”.

For the molecule `Cc1ccc(NC(=O)c2ccsc2)cc1-c1nc(NC2CC(C)(C)NC(C)(C)C2)nc2c1CNC(=O)N2c1c(F)cccc1F` [7(d), N-(3-{8-(2,6-Difluorophenyl)-7-oxo-2-[(2,2,6,6-tetramethyl-4-piperidinyl)amino]-5,6,7,8-tetrahydropyrimido[4,5-d]pyrimidin-4-yl}-4-methylphenyl)-3-thiophenecarboxamide], at Recombinant human p38α, the “active in the assay” value is given as “active”.

With `CSc1nc(-c2cc(N)ccc2C)c2c(n1)N(c1c(F)cccc1F)C(=O)NC2` [10(b), 5-(5-Amino-2-methylphenyl)-1-(2,6-difluorophenyl)-7-(methylthio)-3,4-dihydropyrimido[4,5-d]pyrimidin-2(1H)-one], on Recombinant human p38α, the “active in the assay” value was “active”.

With `Cc1ccc(C(=O)NCc2ccccc2)cc1-c1nc(NC2CCN(C(=O)OC(C)(C)C)CC2)nc2c1CNC(=O)N2c1c(F)cccc1F` [21(a), 1,1-Dimethylethyl 4-{[8-(2,6-difluorophenyl)-4-(2-methyl-5-{[(phenylmethyl)amino]carbonyl}phenyl)-7-oxo-5,6,7,8-tetrahydropyrimido[4,5-d]pyrimidin-2-yl]amino}-1-piperidinecarboxylate], the “active in the assay” value on Recombinant human p38α is “active”.

Consider `Cc1ccc(C(=O)Nc2ccc(F)cc2)cc1-c1nc(NCCNC(C)C)nc2c1CNC(=O)N2c1c(F)cccc1F` [30(c), 3-[8-(2,6-difluorophenyl)-2-({2-[(1-methylethyl)amino]ethyl}amino)-7-oxo-5,6,7,8-tetrahydropyrimido[4,5-d]pyrimidin-4-yl]-N-(4-fluorophenyl)-4-methylbenzamide], for which, at Recombinant human p38α, the “active in the assay” value is given as “active”.

On to `CNCCNc1nc(-c2cc(C(=O)Nc3ccc(F)cc3)ccc2C)c2c(n1)N(c1c(F)cccc1F)C(=O)NC2` [31(b), 3-(8-(2,6-difluorophenyl)-2-{[2-(methylamino)ethyl]amino}-7-oxo-5,6,7,8-tetrahydropyrimido[4,5-d]pyrimidin-4-yl)-N-(4-fluorophenyl)-4-methylbenzamide], for which the “active in the assay” value at Recombinant human p38α is given as “active”.

Regarding `CNC1CCN(c2nc(-c3cc(C(=O)Nc4ccc(F)cc4)ccc3C)c3c(n2)N(c2c(F)cccc2F)C(=O)NC3)CC1` [33(b), 3-{8-(2,6-difluorophenyl)-2-[4-(methylamino)-1-piperidinyl]-7-oxo-5,6,7,8-tetrahydropyrimido[4,5-d]pyrimidin-4-yl}-N-(4-fluorophenyl)-4-methylbenzamide], the “active in the assay” value on Recombinant human p38α is on record as “active”.

For `CNCCNc1nc(-c2cc(C(=O)NC(C)C)ccc2C)c2c(n1)N(c1c(F)cccc1F)C(=O)NC2` [38(b), 3-(8-(2,6-difluorophenyl)-2-{[2-(methylamino)ethyl]amino}-7-oxo-5,6,7,8-tetrahydropyrimido[4,5-d]pyrimidin-4-yl)-4-methyl-N-(1-methylethyl)benzamide], the “active in the assay” value on Recombinant human p38α is on record as “active”.

On to `CC(C)NC(=O)c1cccc(-c2nc(NCCN(C)C)nc3c2CNC(=O)N3c2c(F)cccc2F)c1` [88(c), 3-(8-(2,6-difluorophenyl)-2-{[2-(dimethylamino)ethyl]amino}-7-oxo-5,6,7,8-tetrahydropyrimido[4,5-d]pyrimidin-4-yl)-N-(1-methylethyl)benzamide], for which, at Recombinant human p38α, the “active in the assay” value is “active”.

`CSc1nc(-c2cc(C(=O)N(C)C)ccc2C)c2c(n1)N(c1c(F)cccc1F)C(=O)NC2` [149(a), 3-[8-(2,6-difluorophenyl)-2-(methylthio)-7-oxo-5,6,7,8-tetrahydropyrimido[4,5-d]pyrimidin-4-yl]-N,N,4-trimethylbenzamide]: the “active in the assay” value at Recombinant human p38α is given as “active”.

Turning to `CNC(=O)c1ccc(C)c(-c2nc(SC)nc3c2CNC(=O)N3c2c(F)cccc2F)c1` [163(a), 3-[8-(2,6-difluorophenyl)-2-(methylthio)-7-oxo-5,6,7,8-tetrahydropyrimido[4,5-d]pyrimidin-4-yl]-N,4-dimethylbenzamide], the “active in the assay” value on Recombinant human p38α is on record as “active”.

As for `Cc1ccc(C(=O)Nc2ccc(F)cc2)cc1-c1nc(N(C)CCCN(C)C)nc2c1CNC(=O)N2c1c(F)cccc1F` [Example 9], the inhibition of neutrophilia result in experiment [1] is recorded as “statistically nonsignificant inhibition of neutrophilia”.

Turning to `CSc1nc(-c2cc(NC(=O)c3ccsc3)ccc2C)c2c(n1)N(c1c(F)cccc1F)C(=O)NC2` [Example 10(c), N-{3-[8-(2,6-difluorophenyl)-2-(methylthio)-7-oxo-5,6,7,8-tetrahydropyrimido[4,5-d]pyrimidin-4-yl]-4-methylphenyl}-3-thiophenecarboxamide], the “active in the assay” value on Recombinant human p38α is recorded as “active”.

Consider `Cc1ccc(C(=O)NC(C)C)cc1-c1nc(N(C)CCN(C)C)nc2c1CNC(=O)N2c1c(F)cccc1F` [Example 36, 3-{8-(2,6-difluorophenyl)-2-[[2-(dimethylamino)ethyl](methyl)amino]-7-oxo-5,6,7,8-tetrahydropyrimido[4,5-d]pyrimidin-4-yl}-4-methyl-N-(1-methylethyl)benzamide], for which the inhibition of neutrophilia result in experiment [1] is “statistically significant inhibition of neutrophilia”.

Turning to `CCN(CC)CCCC(C)Nc1nc(-c2cc(C(=O)NC(C)C)ccc2C)c2c(n1)N(c1c(F)cccc1F)C(=O)NC2` (centres unmarked) [Example 85, 3-[2-{[4-(diethylamino)-1-methylbutyl]amino}-8-(2,6-difluorophenyl)-7-oxo-5,6,7,8-tetrahydropyrimido[4,5-d]pyrimidin-4-yl]-4-methyl-N-(1-methylethyl)benzamide trifluoroacetate], at Recombinant human p38α, the “active in the assay” value was “active”.
